Data taken from patent US20220081470A1, “THIAZOLYL PEPTIDES FOR THE TREATMENT NONTUBERCULOUS MYCOBACTERIAL INFECTIONS” (priority 2019, published 2022).
Values after ≈ are worked out from the molar mass of the structure shown. Read-outs that look alike come from different tables or passages of the source.

Tests used:
Mycobacterium gordonae [1] = test: MIC by broth dilution (CLSI M24), resazurin readout; format: cell-based; conditions: M.gordonae
[2] = tested on: Mycobacterium nonchromogenicum; test: Minimum Bactericidal Concentration (MBC); format: cell-based; conditions: Mycolicibacter nonchromogenicus
Mycobacterium fortuitum [3] = test: MIC by broth dilution (CLSI M24), resazurin readout; format: cell-based; conditions: Mycolicibacterium fortuitum; M.fortuitum
[4] = tested on: Mycobacterium intracellulare; test: Minimum Bactericidal Concentration (MBC); format: cell-based; conditions: M.intracellulare
Mycobacterium gordonae [5] = test: Minimum Bactericidal Concentration (MBC); format: cell-based; conditions: M.gordonae
Mycobacterium abscessus [6] = test: MIC by broth dilution (CLSI M24), resazurin readout; format: cell-based; conditions: Mycobacteroides abscessus; M.abscessess
Mycobacterium avium [7] = test: as above; format: cell-based; conditions: M.avium
[8] = tested on: Mycobacterium intracellulare; test: as above; format: cell-based; conditions: M.intracellulare
Mycobacterium abscessus [9] = test: Minimum Bactericidal Concentration (MBC); format: cell-based; conditions: Mycobacteroides abscessus; M.abscessess
M. avium = test: In vitro drug combination study, checkerboard method; format: cell-based, Mycobacterium avium; conditions: for MIC: Mycobacterium avium, 144 h, drug alone, checkerboard, read-out: Individual MIC; for FIC index / Outcome: in combination with PM181108A
Mycobacterium fortuitum [10] = test: Minimum Bactericidal Concentration (MBC); format: cell-based; conditions: Mycolicibacterium fortuitum; M.fortuitum
[11] = tested on: Mycobacterium nonchromogenicum; test: MIC by broth dilution (CLSI M24), resazurin readout; format: cell-based; conditions: Mycolicibacter nonchromogenicus
Mycobacterium kansasii [12] = test: Minimum Bactericidal Concentration (MBC); format: cell-based; conditions: M.kansasii
Mycobacterium avium [13] = test: Minimum Bactericidal Concentration (MBC); format: cell-based; conditions: M.avium
M. gordonae = test: In vitro drug combination study, checkerboard method; format: cell-based, Mycobacterium gordonae; conditions: for MIC: Mycobacterium gordonae, 144 h, drug alone, checkerboard, read-out: Individual MIC; for FIC index / Outcome: in combination with PM181108A
Mycobacterium kansasii [14] = test: MIC by broth dilution (CLSI M24), resazurin readout; format: cell-based; conditions: M.kansasii
[15] = tested on: M. avium in THP-1 macrophages; test: Intracellular efficacy in THP-1 macrophages; format: cell-based, Mycobacterium avium
Procedure: (§1) To test drug efficacy against slow or non-replicating bacilli in the intracellular compartment, THP-1 cells were grown in RPMI medium supplemented with […] sodium pyruvate, 200 mM L-glutamine, 3.7 g of sodium bicarbonate (Sigma) per litre, and 10% foetal calf serum (Gibco-BRL Life Technologies) without any antibiotics. The macrophages were seeded in 96-well plates at a density of approximately 5×10^5 cells/flask, incubated overnight, and were induced by 50 nM phorbol 12-myristate 13-acetate (PMA) to achieve macrophage differentiated phenotypesat 37° C./48-72 hr/5% CO2 atmosphere. After 48 hr of activation, the THP-1 macrophages were infected with respective NTM strains at a multiplicity of infection (MOI) of 1:10/2 h at 37° C. with 5% CO2. The macrophage monolayers were washed twice with […] of phosphate-buffered saline (+Ca^2++Mg^2+) to remove the free bacteria. Sets of triplicate wells were lysed (0.05% SDS) at specific timepoints, and enumerated to estimate the numbers of intracellular NTM 2 h post-infection.
(§2) The residual intracellular viable mycobacteria were enumerated at 0, 3, 5, and 7 day on Middlebrook 7H11 agar plates. […] Inhibitory sigmoidal curves were generated by plotting the log10 cfu/ml against the Cbroth/MIC ratio and the AUC/MIC ratio.

[16] = tested on: M. abscessus in THP-1 macrophages; test: Intracellular efficacy in THP-1 macrophages; format: cell-based, Mycobacterium abscessus; conditions: M.abscessess in THP-1 macrophages
Procedure: as §1, §2

[17] = tested on: M. gordonae in THP-1 macrophages; test: Intracellular efficacy in THP-1 macrophages; format: cell-based, Mycobacterium gordonae
Procedure: as §1, §2

[18] = tested on: M. nonchromogenicum in THP-1 macrophages; test: Intracellular efficacy in THP-1 macrophages; format: cell-based, Mycobacterium nonchromogenicum
Procedure: as §1, §2

[19] = tested on: M. kansasii in THP-1 macrophages; test: Intracellular efficacy in THP-1 macrophages; format: cell-based, Mycobacterium kansasii
Procedure: as §1, §2

[20] = tested on: M. intracellulare in THP-1 macrophages; test: Intracellular efficacy in THP-1 macrophages; format: cell-based, Mycobacterium intracellulare
Procedure: as §1, §2

[21] = tested on: M. fortuitum in THP-1 macrophages; test: Intracellular efficacy in THP-1 macrophages; format: cell-based, Mycobacterium fortuitum
Procedure: as §1, §2

[22] = M.nonchromogenicum, read-out: MBC
[23] = M.nonchromogenicum, read-out: MIC

Row | SMILES | MIC (Mycobacterium gordonae [1]) [µg/mL] | MBC [2] [µg/mL] | MIC (Mycobacterium fortuitum [3]) [µg/mL] | MBC [4] [µg/mL] | MBC (Mycobacterium gordonae [5]) [µg/mL] | MIC (Mycobacterium abscessus [6]) [µg/mL] | MIC (Mycobacterium avium [7]) [µg/mL] | MIC [8] [µg/mL] | MBC (Mycobacterium abscessus [9]) [µg/mL] | MIC (M. avium) [µg/mL] | MBC (Mycobacterium fortuitum [10]) [µg/mL] | MBC (Mycobacterium kansasii [12]) [µg/mL] | MBC (Mycobacterium avium [13]) [µg/mL] | MIC (Mycobacterium kansasii [14]) [µg/mL] | IC Emax (intracellular efficacy) [15] [log10 cfu/ml] | IC Emax (intracellular efficacy) [16] [log10 cfu/ml] | IC Emax (intracellular efficacy) [17] [log10 cfu/ml] | IC Emax (intracellular efficacy) [18] [log10 cfu/ml] | IC Emax (intracellular efficacy) [20] [log10 cfu/ml] | IC Emax (intracellular efficacy) [21] [log10 cfu/ml] | also measured
1 | NCC[C@H](O)C(=O)N[C@@H]1C[C@H](N)[C@@H](O[C@H]2O[C@H](CN)[C@@H](O)[C@H](O)[C@H]2O)[C@H](O)[C@H]1O[C@H]1O[C@H](CO)[C@@H](O)[C@H](N)[C@H]1O [Amikacin] | 2 (≈ 3.42 µM) | 8 (≈ 13.7 µM) | 2 (≈ 3.42 µM) | 2 (≈ 3.42 µM) | 8 (≈ 13.7 µM) | 4 (≈ 6.83 µM) | 2 (≈ 3.42 µM) | 1 (≈ 1.71 µM) | 16 (≈ 27.3 µM) | 4 | 2 (≈ 3.42 µM) | 16 (≈ 27.3 µM) | 8 (≈ 13.7 µM) | 4 (≈ 6.83 µM) | – | – | – | – | – | – | FIC index (M. avium): 0.80; Outcome (M. avium): Additive (>0.5-4.0, addition or indifference); MIC [11]: 2 µg/mL (≈ 3.42 µM); MIC (M. gordonae): 4 µg/mL; FIC index (M. gordonae): 0.90; Outcome (M. gordonae): Additive (>0.5-4.0, addition or indifference)
2 | CC[C@H]1OC(=O)[C@H](C)[C@@H](O[C@H]2C[C@@](C)(OC)[C@@H](O)[C@H](C)O2)[C@H](C)[C@@H](O[C@@H]2O[C@H](C)C[C@H](N(C)C)[C@H]2O)[C@](C)(OC)C[C@@H](C)C(=O)[C@H](C)[C@@H](O)[C@]1(C)O [Clarithromycin] | 0.5 (≈ 0.668 µM) | 4 (≈ 5.35 µM) | 32 (≈ 42.8 µM) | 0.5 (≈ 0.668 µM) | 1 (≈ 1.34 µM) | 2 (≈ 2.67 µM) | 0.5 (≈ 0.668 µM) | 0.13 (≈ 0.174 µM) | 32 (≈ 42.8 µM) | 1 | > 32 | 2 (≈ 2.67 µM) | 2 (≈ 2.67 µM) | 0.5 (≈ 0.668 µM) | 1.00 | 0.70 | 1.26 | 0.82 | 1.78 | 0.35 | FIC index (M. avium): 0.46; Outcome (M. avium): Synergy (≤0.5, synergism); IC Emax (intracellular efficacy) [19]: 0.91 log10 cfu/ml; MIC [11]: 0.25 µg/mL (≈ 0.334 µM); MIC (M. gordonae): 1 µg/mL; FIC index (M. gordonae): 0.46; Outcome (M. gordonae): Synergy (≤0.5, synergism)
3 | COc1c(N2C[C@@H]3CCCN[C@@H]3C2)c(F)cc2c(=O)c(C(=O)O)cn(C3CC3)c12 [Moxifloxacin] | 2 (≈ 4.98 µM) | 16 (≈ 39.9 µM) | < 0.06 | 1 (≈ 2.49 µM) | 4 (≈ 9.96 µM) | 2 (≈ 4.98 µM) | 4 (≈ 9.96 µM) | 0.5 (≈ 1.25 µM) | 4 (≈ 9.96 µM) | – | 0.25 (≈ 0.623 µM) | 8 (≈ 19.9 µM) | 8 (≈ 19.9 µM) | 2 (≈ 4.98 µM) | 1.00 | 1.00 | 1.23 | 0.34 | 1.46 | 1.60 | IC Emax (intracellular efficacy) [19]: 1.93 log10 cfu/ml; MIC [11]: 2 µg/mL (≈ 4.98 µM)
4 | CO[C@H]1/C=C/O[C@@]2(C)Oc3c(C)c(O)c4c(O)c(c(/C=N/N5CCN(C)CC5)c(O)c4c3C2=O)NC(=O)/C(C)=C\C=C\[C@H](C)[C@H](O)[C@@H](C)[C@@H](O)[C@@H](C)[C@H](OC(C)=O)[C@@H]1C [Rifampicin] | 0.25 (≈ 0.304 µM) | – | 4 (≈ 4.86 µM) | 0.25 (≈ 0.304 µM) | 8 (≈ 9.72 µM) | 16 (≈ 19.4 µM) | 0.25 (≈ 0.304 µM) | 0.06 (≈ 0.0729 µM) | 32 (≈ 38.9 µM) | 0.5 | > 32 | 16 (≈ 19.4 µM) | 1 (≈ 1.22 µM) | 0.13 (≈ 0.158 µM) | 1.04 | 0.00 | 1.36 | 0.82 | 0.44 | 0.00 | MBC [2, 22]: 32 µg/mL (≈ 38.9 µM); Outcome (M. avium): Additive (>0.5-4.0, addition or indifference); MIC [11, 23]: 0.13 µg/mL (≈ 0.158 µM); MIC (M. gordonae): 0.5 µg/mL; Outcome (M. gordonae): Synergy (≤0.5, synergism)
5 | C=C(NC(=O)C(=C)NC(=O)c1csc(C2=N[C@@H]3c4csc(n4)[C@H]4NC(=O)c5csc(n5)[C@H]([C@](C)(O)[C@@H](C)O)NC(=O)[C@H]5CSC(=N5)/C(=C/C)NC(=O)[C@H]([C@@H](C)O)NC(=O)c5csc(n5)[C@]3(CC2)NC(=O)[C@H](C)NC(=O)C(=C)NC(=O)[C@H](C)NC(=O)[C@H]([C@@H](C)CC)N[C@@H]2C=Cc3c([C@H](C)O)cc(nc3[C@H]2O)C(=O)O[C@@H]4C)n1)C(N)=O [Thiostrepton] | 0.5 (≈ 0.3 µM) | – | 2 (≈ 1.2 µM) | 1 (≈ 0.601 µM) | 2 (≈ 1.2 µM) | 0.5 (≈ 0.3 µM) | 1 (≈ 0.601 µM) | 0.13 (≈ 0.0781 µM) | 32 (≈ 19.2 µM) | – | > 32 | 16 (≈ 9.61 µM) | 2 (≈ 1.2 µM) | 1 (≈ 0.601 µM) | 1.19 | 0.00 | 0.72 | 0.49 | 0.67 | 0.00 | MBC [2, 22]: 16 µg/mL (≈ 9.61 µM); IC Emax (intracellular efficacy) [19]: 1.56 log10 cfu/ml; MIC [11, 23]: 0.5 µg/mL (≈ 0.3 µM)
